Results published in patent US8247594B2, “Insecticidal compounds” (Syngenta Crop Protection LLC, priority 2007, dated 2012).

Experiments:
[1] = tested on: Tetranychus urticae; assay: Tetranychus urticae (two-spotted spider mite) leaf disc spray test; assay type: in vivo; settings: application rate 200 ppm, sprayed bean leaf discs, mixed ages, 8 days; egg, larval and adult mortality
Text: Tetranychus Urticae (Two-Spotted Spider Mite): Bean leaf discs on agar in 24-well microtiter plates were sprayed with test solutions at an application rate of 200 ppm. After drying, the leaf discs are infested with mite populations of mixed ages. 8 days later, discs are checked for egg mortality, larval mortality, and adult mortality.

[2] = tested on: Myzus persicae; assay: Myzus persicae (green peach aphid) leaf disc spray test; assay type: in vivo; settings: application rate 200 ppm, sprayed sunflower leaf discs, mixed ages, 6 DAT; mortality
Method: Myzus Persicae (Green Peach Aphid): Sunflower leaf discs were placed on agar in a 24-well microtiter plate and sprayed with test solutions at an application rate of 200 ppm. After drying, the leaf discs were infested with an aphid population of mixed ages. After an incubation period of 6 DAT, samples were checked for mortality.

Compound | control of Tetranychus urticae [1] | control of Myzus persicae [2]
N#Cc1ccc(C(=O)Nc2c(Br)cc(C(F)(C(F)(F)F)C(F)(F)F)cc2Br)cc1NC(=O)OCC(Cl)(Cl)Cl [A11] | at least 80% | –
CCc1cc(C(F)(C(F)(F)F)C(F)(F)C(F)(F)F)cc(CC)c1NC(=O)c1ccc(C#N)c(NC(=O)OCC(Cl)(Cl)Cl)c1 (centres unmarked) [A12] | – | at least 80%
